Assay results as given in patent US6365582B1, “S-substitute 11β-benzaldoxime-estra-4, 9-diene-carbonic acid thiolesters, method for the production thereof and pharmaceutical preparations containing these compounds” (Jenapharm GmbH & Co. KG, priority 1998, dated 2002).

What was measured:
glucocorticoid receptor = biological target: T1, glucocorticoid receptor (Rattus norvegicus, UniProt P06536); assay: Receptor binding affinity, glucocorticoid receptor (competitive binding, thymus cytosol); conditions: Dexamethasone = 100%; thymus cytosol of adrenalectomized rat; tracer 3H-dexamethasone
T1 construct: receptors in the cytosol of animal target organs; from tissue; host or cells: thymus cytosol of the adrenalectomized rat
T1 sequence (P06536 1-795): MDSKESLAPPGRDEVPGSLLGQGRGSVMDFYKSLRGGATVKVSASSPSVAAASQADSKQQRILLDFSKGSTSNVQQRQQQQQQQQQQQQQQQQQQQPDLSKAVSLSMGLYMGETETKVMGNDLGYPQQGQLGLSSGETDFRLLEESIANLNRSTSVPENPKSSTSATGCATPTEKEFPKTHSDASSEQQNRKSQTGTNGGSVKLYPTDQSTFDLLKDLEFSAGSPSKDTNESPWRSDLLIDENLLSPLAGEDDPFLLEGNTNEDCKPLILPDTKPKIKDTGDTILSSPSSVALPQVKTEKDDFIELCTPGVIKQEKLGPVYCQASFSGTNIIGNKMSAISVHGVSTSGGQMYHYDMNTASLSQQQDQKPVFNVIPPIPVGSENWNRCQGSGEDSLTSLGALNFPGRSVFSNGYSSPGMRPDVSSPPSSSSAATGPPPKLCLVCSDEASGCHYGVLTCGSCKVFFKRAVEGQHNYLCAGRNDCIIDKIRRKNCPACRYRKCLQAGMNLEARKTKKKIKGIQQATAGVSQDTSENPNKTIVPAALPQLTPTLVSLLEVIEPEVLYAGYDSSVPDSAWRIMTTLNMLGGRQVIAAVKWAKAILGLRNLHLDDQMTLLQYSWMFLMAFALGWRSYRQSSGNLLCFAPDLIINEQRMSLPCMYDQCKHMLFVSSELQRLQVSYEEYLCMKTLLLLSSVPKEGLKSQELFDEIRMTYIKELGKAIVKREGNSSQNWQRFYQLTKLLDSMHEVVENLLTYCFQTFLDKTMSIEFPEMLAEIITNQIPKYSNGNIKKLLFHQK
Method: (§1) Measurement of the receptor binding affinity
(§2) The receptor binding affinity was determined by competitive binding of a specifically binding ^3H-labeled hormone (tracer) and the compound to be tested to receptors in the cytosol of animal target organs. Receptor saturation and reaction equilibrium were aimed at here. The following incubation conditions were chosen:
Glucocorticoid receptor: Thymus cytosol of the adrenalectomized rat. Thymi stored at −30° C.
Tracer: ^3H-dexamethasone, 20 nM.
Reference substance: dexamethasone.
(§3) After an incubation of receptor fraction, tracer and competitor for 18 h at 0-4° C., the bound and free steroid were separated by mixing in active carbon/dextran (1%/0.1%), centrifuging off and measuring the receptor-bound ^3H activity in the supernatant.

progesterone receptor = biological target: T2, progesterone receptor (Oryctolagus cuniculus, UniProt P06186); assay: Receptor binding affinity, progesterone receptor (competitive binding, uterus cytosol); conditions: Progesterone = 100%; uterus cytosol of estradiol-primed rabbit; tracer 3H-ORG 2058
T2 construct: receptors in the cytosol of animal target organs; from tissue; host or cells: uterus cytosol of the estradiol-primed rabbit
T2 sequence (P06186 1-930): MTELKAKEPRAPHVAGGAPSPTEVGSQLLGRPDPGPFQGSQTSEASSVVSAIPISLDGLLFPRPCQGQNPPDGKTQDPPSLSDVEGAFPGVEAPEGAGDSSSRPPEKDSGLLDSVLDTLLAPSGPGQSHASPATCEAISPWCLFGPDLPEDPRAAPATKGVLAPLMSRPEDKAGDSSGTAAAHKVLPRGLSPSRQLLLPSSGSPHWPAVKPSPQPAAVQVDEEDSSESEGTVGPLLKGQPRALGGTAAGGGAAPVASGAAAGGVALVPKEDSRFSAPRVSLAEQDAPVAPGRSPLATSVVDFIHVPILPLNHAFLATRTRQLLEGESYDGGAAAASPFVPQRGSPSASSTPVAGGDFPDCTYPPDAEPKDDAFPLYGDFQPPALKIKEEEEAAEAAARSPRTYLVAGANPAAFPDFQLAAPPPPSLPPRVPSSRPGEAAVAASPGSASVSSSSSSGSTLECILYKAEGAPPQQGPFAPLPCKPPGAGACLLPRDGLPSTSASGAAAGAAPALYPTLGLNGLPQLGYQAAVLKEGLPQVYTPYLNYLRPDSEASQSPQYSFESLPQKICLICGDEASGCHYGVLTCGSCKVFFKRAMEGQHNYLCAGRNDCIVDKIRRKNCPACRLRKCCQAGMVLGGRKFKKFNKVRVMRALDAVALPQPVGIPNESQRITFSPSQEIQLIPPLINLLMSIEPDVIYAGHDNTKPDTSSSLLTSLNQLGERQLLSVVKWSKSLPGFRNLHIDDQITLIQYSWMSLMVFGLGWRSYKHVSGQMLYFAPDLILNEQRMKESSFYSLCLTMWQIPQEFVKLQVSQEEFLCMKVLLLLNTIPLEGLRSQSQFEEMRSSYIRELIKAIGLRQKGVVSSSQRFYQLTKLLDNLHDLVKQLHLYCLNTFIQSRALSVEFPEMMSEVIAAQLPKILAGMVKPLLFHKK
Method: as §1, §2
Progesterone receptor Uterus cytosol of the estradiol-primed rabbit, stored at −30° C.
Buffer for homogenization and incubation: TED buffer 20 mM tris/HCl, pH [sic]=7.4; 1 mM ethylenediamine tetracetate, 2 mM dithiothreitol) containing 250 mM sucrose.
Reference substance: progesterone.
as §3

[1] = tested on: early pregnancy in the rat; assay: Inhibition of early pregnancy in the rat (early abortive action); type: in vivo; conditions: s.c., day 5-7 of pregnancy
Method: Inhibition of early pregnancy in the rat Female rats weighing 180-200 g were mated in the proestrus stage. On detection of sperm in the vaginal region on the next day, this is set as day 1 (d=1) of the pregnancy. The rats are treated with test substance or vehicle using 0.2 ml of benzoyl benzoate/castor oil (1+4 v/v) subcutaneously from day 5 to day 7 (d5-d7); autopsy is carried oust painlessly on day d9. The uterus horns was [sic] dissected and examined for intact or damaged nidation sites.

pregnancy of guinea pigs = assay: Inhibition of late pregnancy in pregnant guinea pigs (abortive action); type: in vivo; conditions: guinea pig; for Complete inhibition of pregnancy % / Complete inhibition of pregnancy N#/N (non-gravid/mated females): s.c., day 43-44 of pregnancy
Method: Inhibition of late pregnancy in pregnant guinea pigs
Pregnant guinea pigs are treated with test substances from day 43-44. Experimental animals were […] with the test substance in oily solution (0.2-2.0 ml of benzoyl benzoate/castor oil 1+4 v/v) 1× daily on day 43 and 44. Control animals were treated with vehicle. The pregnancy of the animals was monitored until day 50, in particular, the expulsion of fetuses and placentas was observed and recorded.

Row | SMILES | Relative molar binding affinity RBA (%) to the glucocorticoid receptor (glucocorticoid receptor) | Relative molar binding affinity RBA (%) to the progesterone receptor (progesterone receptor) | Complete inhibition of pregnancy % ([1]; 1 mg/(animal × day)) | Complete inhibition of pregnancy N#/N (non-gravid/mated females) ([1]; 1 mg/(animal × day)) | Complete inhibition of pregnancy % ([1]; 3 mg/(animal × day)) | Complete inhibition of pregnancy N#/N (non-gravid/mated females) ([1]; 3 mg/(animal × day)) | other results
1 | CCSC(=O)OC[C@]1(O)CC[C@H]2[C@@H]3CCC4=CC(=O)CCC4=C3[C@@H](c3ccc(/C=N/OC(=O)SCC)cc3)C[C@@]21C [Example 8, 4-{17β-Hydroxy-17α-[(ethylthiocarbonyloxy)methyl]3-oxoestra-4,9-dien-11β-yl]benzaldehyde 1-(E)-[O-(ethylthio)carbonyl]oxime] | 32% | 74% | – | – | – | – | –
2 | CCSC(=O)O/N=C/c1ccc([C@H]2C[C@@]3(C)[C@@H](CC[C@@]3(O)CC#N)[C@@H]3CCC4=CC(=O)CCC4=C32)cc1 [Example 7] | 2% | 42% | 0% | 0/5 | 0% | 0/5 | –
3 | CCSC(=O)O/N=C/c1ccc([C@H]2C[C@@]3(C)[C@@H](CC[C@]3(COC)OC)[C@@H]3CCC4=CC(=O)CCC4=C32)cc1 [Example 3, 4-[17β-Methoxy-17α-(methoxymethyl)-3-oxoestra-4,9-dien-11β-yl]benzaldehyde 1-(E)-[O-(ethylthio)carbonyl]oxime] | 42% | 164% | 0% | 0/5 | 0% | 0/5 | Complete inhibition of pregnancy % ([1]; 10 mg/(animal × day)): 20%; Complete inhibition of pregnancy N#/N (non-gravid/mated females) ([1]; 10 mg/(animal × day)): 1/5; Complete inhibition of pregnancy % (pregnancy of guinea pigs; 10 mg/animal/day): 0%; Complete inhibition of pregnancy N#/N (non-gravid/mated females) (pregnancy of guinea pigs; 10 mg/animal/day): 0/7; Complete inhibition of pregnancy % (pregnancy of guinea pigs; 30 mg/animal/day): 0%; Complete inhibition of pregnancy N#/N (non-gravid/mated females) (pregnancy of guinea pigs; 30 mg/animal/day): 0/7; Complete inhibition of pregnancy % (pregnancy of guinea pigs; 100 mg/animal/day): 0%; Complete inhibition of pregnancy N#/N (non-gravid/mated females) (pregnancy of guinea pigs; 100 mg/animal/day): 0/7; Interference with the pregnancy of guinea pigs (in words) (pregnancy of guinea pigs; very high doses): incapable even at very high doses of interfering with the pregnancy of guinea pigs
4 | CCSC(=O)ON=Cc1ccc(C2CC3(C)C(CCC3(O)CN=[N+]=[N-])C3CCC4=CC(=O)CCC4=C23)cc1 (stereo not drawn) [Example 5, 4-[17β-Hydroxy-17α-(azidomethyl)-3-oxoestra-4,9-dien-11β-yl]benzaldehyde-1-(E)-[O-(ethylthio)carbonyl]oxime] | 20% | 77% | – | – | – | – | –
5 | CCSC(=O)ON=Cc1ccc(C2CC3(C)C(CCC3(O)CCl)C3CCC4=CC(=O)CCC4=C23)cc1 (stereo not drawn) [Example 6, 4-[17β-Hydroxy-17α-(chloromethyl)-3-oxoestra-4,9-dien-11β-yl]benzaldehyde 1-(E)-[O-(ethylthio)carbonyl]oxime] | 22% | 64% | – | – | – | – | –
6 | COC[C@@]1(O)CC[C@H]2[C@@H]3CCC4=CC(=O)CCC4=C3[C@@H](c3ccc(/C=N/OC(=O)SC)cc3)C[C@@]21C [Example 2, 4-[17β-Hydroxy-17α-(methoxymethyl)-3-oxoestra-4,9-dien-11β-yl]benzaldehyde 1-(E)-[O-(methylthio)carbonyl]oxime] | 52% | 185% | – | – | 0% | 0/4 | –
7 | COC[C@]1(OC)CC[C@H]2[C@@H]3CCC4=CC(=O)CCC4=C3[C@@H](c3ccc(/C=N/O)cc3)C[C@@]21C [J 867, 11β-[4-(hydroximinomethyl)phenyl]-17β-methoxy-17α-methoxymethyl-estra-4,9-dien-3-one, reference compound] | 77% | 302% | 100% | 5/5 | 100% | 5/5 | Complete inhibition of pregnancy % ([1]; 0.3 mg/(animal × day)): 0%; Complete inhibition of pregnancy N#/N (non-gravid/mated females) ([1]; 0.3 mg/(animal × day)): 0/5
8 | COCC1(OC)CCC2C3CCC4=CC(=O)CCC4=C3C(c3ccc(C=NOC(=O)SC)cc3)CC21C (stereo not drawn) [Example 1, 4-[17β-Methoxy-17α-(methoxymethyl)-3-oxoestra-4,9-dien-11β-yl]benzaldehyde 1-(E)-[O-(methylthio)carbonyl]oxime] | 49% | 159% | – | – | – | – | –
9 | CCSC(=O)ON=Cc1ccc(C2CC3(C)C(CCC3(O)COC)C3CCC4=CC(=O)CCC4=C23)cc1 (stereo not drawn) [Example 4, 4-[17β-Hydroxy-17α-(methoxymethyl)-3-oxoestra-4,9-dien-11β-yl]benzaldehyde 1-(E)-[O-(ethylthio)carbonyl]oxime] | 53% | 44% | – | – | – | – | –
